These results are taken from patent publication US12630498B2 (Genzyme Corporation, priority 2019, dated 2026).

The target in experiment [1] is T1, human Cystic Fibrosis Transmembrane Conductance Regulator (CFTR) harboring the ΔF508 mutation (Homo sapiens, UniProt P13569, DEL508-508).
T1 construct: expressed in transfected cells; host or cells: H441 carcinoma line (G418-selected)
The experiment in a line: H441 cell ΔF508-CFTR-HRP cell surface assay (Emax and EC50). Format: cell-based. Particulars: for Emax: NCI-H441, NA = Not active. The method, boiled down: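 H441 and 41o- bronchial epithelial cells expressing ΔF508-CFTR with an extracellular-loop-4 HRP tag were treated with a 15-point compound series (24.5–0.001 μM) for two nights, H441 at 27° C, 41o- at 37° C with 0.0005 mg/ml doxycycline. Surface HRP luminescence read; % of maximum VX809 signal and EC50 derived.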

Experiment [2] addresses T2, CFTR-mediated transepithelial chloride transport in primary human bronchial epithelial cells from a ΔF508 homozygous CF donor (Homo sapiens, UniProt P13569, DEL508-508).
T2 construct: Primary human bronchial epithelial cells from a ΔF508 homozygous CF donor; host or cells: primary CF-HBE cells, ΔF508 homozygous donor
Nature of the experiment: TECC24 recording of CFTR-mediated transepithelial chloride transport in CF-HBE cells (AUC fold over DMSO). The experiment is classed as cell-based. The conditions noted are these: test agent 10 μM, 48 hours incubation, AUC of forskolin-stimulated IEQ relative to DMSO. Here is the method:
Example 316: TECC24 AUC Fold Over DMSO @ 10 uM
The effects of a test agent on CFTR-mediated transepithelial chloride transport was measured using TECC24 recording analysis. Test agents were solubilized in DMSO. Solubilized test agents were mixed with incubation medium containing DMEM/F12, Ultroser G (2%; Crescent Chemical, catalog #67042), Hyclone Fetal Clone II (2%; GE Healthcare, catalog #SH30066.02), bovine brain extract (0.25%; Lonza, catalog #CC-4098), insulin (2.5 μg/mL), IL-13 (10 ng/mL), hydrocortisone (20 nM), transferrin (2.5 μg/mL), triiodothyronine (500 nM), ethanolamine (250 nM), epinephrine (1.5 μM), phosphoethanolamine (250 nM), and retinoic acid (10 nM). Primary human bronchial epithelial cells from a ΔF508 homozygous CF donor (CF-HBE cells; from University of North Carolina Cystic Fibrosis Tissue Procurement Center), grown on Transwell HTS 24-well cell culture inserts (Costar, catalog #3378), were exposed to test agents or controls dissolved in incubation medium. The CF-HBE cells were cultured at 36.5° C. for 48 hours before TECC24 recordings were performed in the presence or absence of test agent, a positive control or vehicle (DMSO).
Following incubation, the transwell cell culture inserts containing the test agent or control-treated CF-HBE cells were loaded onto a TECC24 apparatus (TECC v7 or MTECC v2; EP Design) to record the transepithelial voltage (VT) and resistance (TEER) using 4 AgCl electrodes per well configured in current-clamp mode. The apical and basolateral bath solutions both contained (in mM) 140 NaCl, 5 KCl, 2 CaCl2), 1 MgCl2, 10 Hepes, and 10 glucose (adjusted to pH 7.4 with NaOH). To inhibit basal Na+ absorption, the ENaC inhibitor benzamil (10 μM) was added to the bath. Then, the adenylate cyclase activator, forskolin (10 μM), was added to the bath to activate CFTR. The forskolin-stimulated Cl-transport was halted by addition of CFTR inhibitor-172 (20 μM) to the bath at the end of the experiment to confirm specificity. VT and TEER recordings were digitally acquired at routine intervals using TECC or MTECC software (EP Design). VT and TEER were transformed into equivalent transepithelial Cl-current (IEQ), and the Area Under the Curve (AUC) of the IEQ time course between forskolin and CFTR inhibitor-172 addition was generated using Excel (Microsoft). Efficacy is expressed as the ratio of the test agent AUC divided by vehicle AUC. EC50s based on AUC are generated using the non-linear regression log(agonist) vs. response function in Prism software (GraphPad) with Hill Slope fixed=1.
If a test agent increased the AUC of the forskolin-stimulated IEQ relative to vehicle in CF-HBE cells, and this increase was inhibited by CFTR inhibitor-172, then the test agent was considered a CFTR corrector.

Structures are written as SMILES.

T2 sequence (P13569 with tags, fused parts or gaps DEL508-508): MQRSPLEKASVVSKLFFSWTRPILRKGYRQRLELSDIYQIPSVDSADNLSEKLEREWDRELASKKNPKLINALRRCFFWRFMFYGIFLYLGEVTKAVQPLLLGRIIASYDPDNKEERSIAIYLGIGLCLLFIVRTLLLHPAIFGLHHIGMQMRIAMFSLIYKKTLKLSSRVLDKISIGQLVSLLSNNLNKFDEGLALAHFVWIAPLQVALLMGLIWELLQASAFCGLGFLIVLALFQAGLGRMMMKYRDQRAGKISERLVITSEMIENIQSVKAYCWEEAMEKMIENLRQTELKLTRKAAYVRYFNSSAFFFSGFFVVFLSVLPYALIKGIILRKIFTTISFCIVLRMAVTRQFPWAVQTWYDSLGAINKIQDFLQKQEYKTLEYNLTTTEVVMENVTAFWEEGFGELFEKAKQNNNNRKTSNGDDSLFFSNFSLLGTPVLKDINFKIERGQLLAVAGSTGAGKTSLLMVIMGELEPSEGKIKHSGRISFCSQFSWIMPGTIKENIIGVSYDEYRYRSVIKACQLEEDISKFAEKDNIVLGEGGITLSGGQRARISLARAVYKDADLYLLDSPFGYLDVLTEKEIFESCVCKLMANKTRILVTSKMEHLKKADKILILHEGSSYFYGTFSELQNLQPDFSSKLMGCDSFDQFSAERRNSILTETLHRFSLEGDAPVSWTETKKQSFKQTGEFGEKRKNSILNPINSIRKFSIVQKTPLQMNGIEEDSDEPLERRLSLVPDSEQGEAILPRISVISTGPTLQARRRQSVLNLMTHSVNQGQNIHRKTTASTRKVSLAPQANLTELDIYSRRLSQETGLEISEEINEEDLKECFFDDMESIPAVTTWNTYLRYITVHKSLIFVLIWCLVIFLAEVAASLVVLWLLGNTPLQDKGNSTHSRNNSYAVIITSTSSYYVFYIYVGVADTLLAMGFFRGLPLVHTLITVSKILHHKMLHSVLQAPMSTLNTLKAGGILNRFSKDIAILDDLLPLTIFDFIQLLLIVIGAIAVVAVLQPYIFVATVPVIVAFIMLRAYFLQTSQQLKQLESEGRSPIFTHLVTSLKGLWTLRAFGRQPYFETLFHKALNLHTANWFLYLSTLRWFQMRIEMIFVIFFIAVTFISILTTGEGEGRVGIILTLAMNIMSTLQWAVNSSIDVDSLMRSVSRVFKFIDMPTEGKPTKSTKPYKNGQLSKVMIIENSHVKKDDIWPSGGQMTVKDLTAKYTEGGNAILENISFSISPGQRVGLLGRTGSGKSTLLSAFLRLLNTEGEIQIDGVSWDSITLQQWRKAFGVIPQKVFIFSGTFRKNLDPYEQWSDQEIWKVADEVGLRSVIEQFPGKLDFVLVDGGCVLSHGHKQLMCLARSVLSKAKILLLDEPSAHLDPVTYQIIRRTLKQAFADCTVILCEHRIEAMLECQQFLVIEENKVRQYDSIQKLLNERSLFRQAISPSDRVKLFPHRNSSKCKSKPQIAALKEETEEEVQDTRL
T1 sequence (P13569 with tags, fused parts or gaps DEL508-508): as above

In experiment [1], `O=C(N[C@H](C(=O)O)C12CC(C(F)(F)F)(C1)C2)c1ccc2ccccc2c1OCc1ccc(C(F)(F)F)cc1` [Example 13, (S)-2-(1-((4-(trifluoromethyl)benzyl)oxy)-2-naphthamido)-2-(3-(trifluoromethyl)bicyclo[1.1.1]pentan-1-yl)acetic Acid] returned an EC50 of 1200 nM and an Emax of 81.3%. The “TECC24 AUC fold over DMSO @10 μM” value in experiment [2] is “C (“C” refers to AUC @10 uM <4)”.
For the compound `O=C(N[C@H](C(=O)O)C12CCC(CC1)C2)c1ccc2ccccc2c1OCc1ccc(OC(F)(F)F)cc1` [Example 14, (S)-2-((1r,4S)-bicyclo[2.2.1]heptan-1-yl)-2-(1-((4-(trifluoromethoxy)benzyl)oxy)-2-naphthamido)acetic Acid], in experiment [1], the EC50 is 100 nM and the Emax is 103%. Also, in experiment [2], the “TECC24 AUC fold over DMSO @10 μM” value is reported as “B (“B” refers to AUC @10 uM between 4-6)”.
On to `O=C(N[C@H](C(=O)O)C12CC(C(F)(F)F)(C1)C2)c1ccc2ccccc2c1OCc1ccc(SC(F)(F)F)cc1` [Example 17, (S)-2-(3-(trifluoromethyl)bicyclo[1.1.1]pentan-1-yl)-2-(1-((4-((trifluoromethyl)thio)benzyl)oxy)-2-naphthamido)acetic Acid], for which, in experiment [1], the EC50 is 700 nM and the Emax turned out to be 63.9%. Further, the “TECC24 AUC fold over DMSO @10 μM” value in experiment [2] is “C (“C” refers to AUC @10 uM <4)”.
In experiment [1], `CC(C)(C)[C@H](NC(=O)c1ccc2cc(F)ccc2c1OCc1ccc(OC(F)(F)F)cc1)C(=O)O` [Example 19, (S)-2-(6-fluoro-1-((4-(trifluoromethoxy)benzyl)oxy)-2-naphthamido)-3,3-dimethylbutanoic Acid] gave an EC50 of 21900 nM and an Emax of 48.3%. For the same compound, the “TECC24 AUC fold over DMSO @10 μM” value in experiment [2] was “C (“C” refers to AUC @10 uM <4)”.
For `CC(C)(C)[C@H](NC(=O)c1ccc2ccccc2c1OCc1ccc(C(F)(F)F)c(F)c1)C(=O)O` [Example 25, (S)-2-(1-((3-fluoro-4-(trifluoromethyl)benzyl)oxy)-2-naphthamido)-3,3-dimethylbutanoic Acid], in that order: 500 nM, 287% and “C (“C” refers to AUC @10 uM <4)”.
In the same order, the values of `CC(C)(C)[C@H](NC(=O)c1ccc2ccccc2c1OC[C@H]1CC[C@@H](C(F)(F)F)CC1)C(=O)O` [Example 26, (S)-3,3-dimethyl-2-(1-(((1s,4R)-4-(trifluoromethyl)cyclohexyl)methoxy)-2-naphthamido)butanoic Acid] are 4600 nM, 98.8% and “C (“C” refers to AUC @10 uM <4)”.
For the compound `CC(C)(C)[C@H](NC(=O)c1ccc2cc(F)ccc2c1OCc1ccc(C(F)(F)F)cc1)C(=O)O` [Example 27, (S)-2-(6-fluoro-1-((4-(trifluoromethyl)benzyl)oxy)-2-naphthamido)-3,3-dimethylbutanoic Acid], in experiment [1], the EC50 was determined as 600 nM and the Emax is 134%. The “TECC24 AUC fold over DMSO @10 μM” value in experiment [2] is reported as “B (“B” refers to AUC @10 uM between 4-6)”.
In experiment [1], `COC(=O)c1ccc(COc2c(C(=O)N[C@H](C(=O)O)C(C)(C)C)ccc3ccccc23)cc1` [Example 28, (S)-2-(1-((4-(methoxycarbonyl)benzyl)oxy)-2-naphthamido)-3,3-dimethylbutanoic Acid] registered an EC50 of 4900 nM and an Emax of 70.2%. The “TECC24 AUC fold over DMSO @10 μM” value in experiment [2] was “C (“C” refers to AUC @10 uM <4)”.
In experiment [1], `CC(C)(C)[C@H](NC(=O)c1ccc2ccccc2c1OCc1ccc(C#N)cc1)C(=O)O` [Example 31, (S)-2-(1-((4-cyanobenzyl)oxy)-2-naphthamido)-3,3-dimethylbutanoic Acid] showed a 50% effective concentration (EC50) of 8000 nM and an Emax of 77.1%. In experiment [2], the “TECC24 AUC fold over DMSO @10 μM” value is “C (“C” refers to AUC @10 uM <4)”.
With `CC(C)(C)[C@H](NC(=O)c1ccc2ccccc2c1OCc1ccc(SC(F)(F)F)cc1)C(=O)O` [Example 35, (S)-3,3-dimethyl-2-(1-((4-((trifluoromethyl)thio)benzyl)oxy)-2-naphthamido)butanoic Acid], in experiment [1], the EC50 stood at 600 nM and the Emax turned out to be 86.4%. For the same compound, the “TECC24 AUC fold over DMSO @10 μM” value in experiment [2] was “A (“A” refers to AUC @10 uM >6)”.
In the same order, the values of `CC1(C(NC(=O)c2ccc3ccccc3c2OCc2ccc(SC(F)(F)F)cc2)C(=O)O)CCCCC1` (stereo not drawn) [Example 36, 2-(1-methylcyclohexyl)-2-(1-((4-((trifluoromethyl)thio)benzyl)oxy)-2-naphthamido)acetic Acid] are 700 nM, 133% and “B (“B” refers to AUC @10 uM between 4-6)”.
For `CC(C)(C)[C@H](NC(=O)c1ccc2ccccc2c1OCc1ccc(C(F)(F)C(F)(F)F)cc1)C(=O)O` [Example 37, (S)-3,3-dimethyl-2-(1-((4-(perfluoroethyl)benzyl)oxy)-2-naphthamido)butanoic Acid], in that order: 300 nM, 195% and “C (“C” refers to AUC @10 uM <4)”.
In experiment [1], `CC1([C@H](NC(=O)c2ccc3cc(F)ccc3c2OCc2ccc(C(F)(F)F)cc2)C(=O)O)CCCCC1` [Example 40, (S)-2-(6-fluoro-1-((4-(trifluoromethyl)benzyl)oxy)-2-naphthamido)-2-(1-methylcyclohexyl)acetic Acid] showed a concentration for a half-maximal effect (EC50) of 300 nM and an Emax of 100%. Also, in experiment [2], the “TECC24 AUC fold over DMSO @10 μM” value was “C (“C” refers to AUC @10 uM <4)”.
In experiment [1], `CC(C)(C)[C@H](NC(=O)c1ccc2ccccc2c1OCC1CC2CCC1C2)C(=O)O` (stereo partly drawn) [Example 41, (2S)-2-(1-(bicyclo[2.2.1]heptan-2-ylmethoxy)-2-naphthamido)-3,3-dimethylbutanoic Acid] yielded an EC50 of 3700 nM and an Emax of 112%. For the same compound, the “TECC24 AUC fold over DMSO @10 μM” value in experiment [2] is recorded as “C (“C” refers to AUC @10 uM <4)”.
As for `CC(C)(C)[C@H](NC(=O)c1ccc2cc(F)ccc2c1OCC1CCCCC1)C(=O)O` [Example 45, (S)-2-(1-(cyclohexylmethoxy)-6-fluoro-2-naphthamido)-3,3-dimethylbutanoic Acid], in experiment [1], the EC50 is 1800 nM and the Emax turned out to be 94.7%. For the same compound, the “TECC24 AUC fold over DMSO @10 μM” value in experiment [2] was “C (“C” refers to AUC @10 uM <4)”.
For `CC(C)(C)[C@H](NC(=O)c1ccc2ccccc2c1OCc1ccc(Cl)c(Cl)c1)C(=O)O` [Example 47, (S)-2-(1-((3,4-dichlorobenzyl)oxy)-2-naphthamido)-3,3-dimethylbutanoic Acid], in that order: 900 nM, 117% and “C (“C” refers to AUC @10 uM <4)”.
In experiment [1], `CC1(C(NC(=O)c2ccc3ccccc3c2OCc2ccc(S(F)(F)(F)(F)F)cc2)C(=O)O)CCCCC1` (stereo not drawn) [Example 48, 2-(1-methylcyclohexyl)-2-(1-((4-(pentafluoro-16-sulfanyl)benzyl)oxy)-2-naphthamido)acetic Acid] came in with an EC50 of 700 nM and an Emax of 112%. Besides, the “TECC24 AUC fold over DMSO @10 μM” value in experiment [2] is “C (“C” refers to AUC @10 uM <4)”.
For `CC1(C(NC(=O)c2ccc3cc(F)ccc3c2OCc2ccc(S(F)(F)(F)(F)F)cc2)C(=O)O)CCCCC1` (stereo not drawn) [Example 50, 2-(6-fluoro-1-((4-(pentafluoro-16-sulfanyl)benzyl)oxy)-2-naphthamido)-2-(1-methylcyclohexyl)acetic Acid], in that order: 400 nM, 57.8% and “C (“C” refers to AUC @10 uM <4)”.
